{
  "source": "patent US9066971B2",
  "about": "(priority 2010, dated 2015)",
  "test_system": "mouse colon 26 cell line",
  "assay_type": "in vivo",
  "conditions": "18 mg/kg aspirin alone, tail vein, twice a week; day 23; compared to PBS alone",
  "protocol": "The shedding microvesicles derived from E. coli, P. aeruginosa, and S. enteritidis were assayed for anticancer activity. A mouse colon 26 cell line was subcutaneously injected at a dose of 1×10^6 cells into mice, and cultured. After one week, a PBS solution containing 1 μg, or 5 μg of each of the Gram-negative bacterial cell-derived microvesicles was injected at a dose of 100 μl twice a week via the tail vein into the mice which were divided into groups, each consisting of three. On day 23 after the transplantation of cancer cells, the sizes of colon cancer tissue were monitored. The volume of cancer tissue was calculated by the equation V=l×s^2/2, wherein 1 is a length of the longest axis of a tumor and s is a length of the axis perpendicular to the longest axis.\nThe shedding microvesicles derived from S. aureus and Lactobacillus acidophilus were assayed for anticancer activity. […] On day 23 after the transplantation of cancer cells, the sizes of colon cancer tissue were monitored. The volume of cancer tissue was calculated by the equation V=l×s^2/2, wherein 1 is a length of the longest axis of a tumor and s is a length of the axis perpendicular to the longest axis.\nA mouse colon 26 cell line was subcutaneously injected at a dose of 1×10^6 cells into mice, and cultured. […] On day 23 after the transplantation of cancer cells, the sizes of colon cancer tissue were monitored. […]",
  "data": [
    {"smiles": "CC(=O)Oc1ccccc1C(=O)O", "note": "[aspirin]", "values": [
      {"measurement": "size of colon tumors", "value": "no differences in the size of colon tumors"}
    ]}
  ]
}
